PubChem BioAssay (NCI)
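Exposure lasted 48 hours, with cells grown in 96-well plates and compounds tested at five concentrations. At the GI50, growth is halved. TGI: concentration producing complete growth inhibition.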

Columns and labels:
Test in all cases: NCI tumour cell line growth inhibition, 48 h
[1] = system: NCI-H226 lung
[2] = system: SNB-75 CNS
[3] = system: SF-295 CNS
[4] = system: 786-0 renal
[5] = system: CCRF-CEM leukemia
[6] = system: RPMI-8226 leukemia
[7] = system: OVCAR-4 ovarian
[8] = system: SK-MEL-28 melanoma
[9] = system: A549 NSCLC
[10] = system: MDA-MB-231 breast

SMILES | TGI [1] [µM] | TGI [2] [µM] | TGI [3] [µM] | TGI [4] [µM] | TGI [5] [µM] | TGI [6] [µM] | TGI [7] [µM] | TGI [8] [µM] | TGI [9] [µM] | TGI [10] [µM] | GI50 [1] [µM] | GI50 [3] [µM] | GI50 [4] [µM] | GI50 [5] [µM] | GI50 [10] [µM] | GI50 [7] [µM] | GI50 [8] [µM] | GI50 [9] [µM] | GI50 [6] [µM]
O=C(Cc1c(C(=O)Nc2ccccc2)sc(C(=O)Nc2ccccc2)c1CC(=O)Nc1ccccc1)Nc1ccccc1 | > 100 | > 100 | > 100 | > 100 | > 100 | > 100 | > 100 | 19.8 | > 100 |  |  |  |  |  |  |  |  |  | 
COC1OC(CO)C(O)C(NC(=O)N(C)N=O)C1O (stereo unspecified) | > 100 | > 100 | > 100 | > 100 | > 100 | > 100 | > 100 | > 100 | > 100 |  |  |  |  |  |  |  |  |  | 
Cc1ccc(NC(=O)CC2SC(=Nc3cccc(Cl)c3C)NC2=O)cc1 (stereo unspecified) |  | > 100 | > 100 | > 100 | > 100 | > 100 | > 100 | > 100 | > 100 |  |  |  |  |  |  |  |  |  | 
CCCC(c1cc(C(C)(C)C)c(O)cc1C)c1cc(C(C)(C)C)c(O)cc1C | 4.53 |  | 6.11 | 5.41 | 6.88 | 5.77 | 19.4 | 12.4 | 9.78 | 9.57 |  |  |  |  |  |  |  |  | 
Cc1cc2c(=O)cc(-c3ccc(Cl)cc3Cl)oc2c(C(=O)O)c1C | > 100 | > 100 | > 100 | > 100 | > 100 | > 100 | > 100 | > 100 | > 100 |  |  |  |  |  |  |  |  |  | 
COC(=O)c1oc([N+](=O)[O-])c(-c2ccccc2)c1-c1ccccc1 | > 100 | > 100 | > 100 | > 100 | > 100 | > 100 | > 100 | > 100 | > 100 |  |  |  |  |  |  |  |  |  | 
Cc1cc2c(cc1C)[n+](=O)c(C(=O)CC(=O)C(=O)Nc1ccccc1C)c(C)n2[O-] | > 100 | > 100 | > 100 | > 100 | > 100 | > 100 | > 100 | > 100 | > 100 |  |  |  |  |  |  |  |  |  | 
CCOC(=O)c1sc(Nc2cc(Cl)ccc2Cl)nc1C | > 100 | > 100 | > 100 | > 100 |  | > 100 | > 100 | > 100 | > 100 |  |  |  |  |  |  |  |  |  | 
CC(=O)OC1C(COC(N)=O)OC(n2c(-c3ccc(C)cc3)cc(-c3ccccc3)c(C#N)c2=O)C(OC(C)=O)C1OC(C)=O (stereo unspecified) | > 100 | > 100 | > 100 | > 100 | > 100 | > 100 | > 100 | > 100 | > 100 |  |  |  |  |  |  |  |  |  | 
Clc1ccc(Nc2ncnc3ccccc23)cc1 | > 100 |  | > 100 | > 100 | > 100 |  | > 100 | > 100 | > 100 | > 100 | 57.2 | 37.9 | 64.7 | 48.8 | > 100 | > 100 | > 100 | 47.6 | 
CO[C@@H]1[C@H](N(C)C(=O)c2ccccc2)C[C@@H]2O[C@]1(C)n1c3ccccc3c3c4c(c5c6ccccc6n2c5c31)C(=O)NC4=O | > 100 |  | > 100 | > 100 |  | > 100 | > 100 | > 100 | > 100 | > 100 | 0.303 | 1.45 | 0.744 |  | 0.48 | 0.7 | > 100 | 0.595 | > 100
CC[C@H]1[C@@H](C)C=C[C@@H](C)N1S(=O)(=O)c1ccc(C)cc1 | > 100 | > 100 | > 100 | > 100 | > 100 | > 100 | > 100 | > 100 | > 100 |  |  |  |  |  |  |  |  |  | 
O=C1C2=C(c3ccccc31)C(c1ccccc1Cl)NC(=S)N2 (stereo unspecified) | > 100 | > 100 | > 100 | > 100 | > 100 | > 100 | > 100 | > 100 | > 100 |  |  |  |  |  |  |  |  |  | 
O=P1(O)c2ccccc2CSCc2ccccc21 | > 100 |  | > 100 | > 100 | > 100 |  | > 100 | > 100 | > 100 | > 100 |  |  |  |  |  |  |  |  | 
O=C(O)COc1ccc2c3c1C(=O)CCC3CO2 (stereo unspecified) |  |  | > 100 | > 100 | > 100 | > 100 | > 100 | > 100 | > 100 |  |  |  |  |  |  |  |  |  | 
OCC(O)COc1ccc(F)cc1 (stereo unspecified) | > 100 | > 100 | > 100 | > 100 | > 100 |  | > 100 | > 100 | > 100 |  |  |  |  |  |  |  |  |  | 
c1ccc2c(CNCCCN3CCN(CCCNCc4cccc5ccccc45)CC3)cccc2c1 | 7.75 | 3.15 | 3.28 | 4.18 | 3 |  | 5 | 3.06 | 4.25 |  |  |  |  |  |  |  |  |  | 
COc1ccc(C(=O)O[C@@H]2CCN3CC[C@H](C)[C@H]23)cc1 | > 100 | > 100 | > 100 | > 100 |  | > 100 |  | > 100 | > 100 | > 100 |  |  |  |  |  |  |  |  | 
Cc1cn2c(/C=N/NC3=NCCN3)c(-c3ccc(Cl)c([N+](=O)[O-])c3)nc2s1 |  |  |  | 2.5 |  | > 50 |  |  |  | 1.57 |  |  | 0.908 |  | 0.778 |  |  |  | 1.27
CC1=CC=C2C(C)(C)CC[C@@H]3OC(=O)[C@H]1[C@]23C | > 100 | > 100 | > 100 | > 100 | > 100 |  | > 100 | > 100 | > 100 |  |  |  |  |  |  |  |  |  | 
C=CCC1=C2CCCCC2CCC1=O (stereo unspecified) |  | > 100 | > 100 | > 100 | > 100 | > 100 | > 100 | > 100 | > 100 |  |  |  |  |  |  |  |  |  | 
CCCCN(CCCC)C(=O)C(=O)C(C(=O)C(=O)OC)c1nc2ccccc2o1 (stereo unspecified) | > 100 | > 100 | > 100 | > 100 | > 100 |  | > 100 | > 100 | > 100 |  |  |  |  |  |  |  |  |  | 
COc1cc(/C=C(\C)c2ccc3c(c2)OCO3)cc(OC)c1OC | > 100 | 37.8 | > 100 | > 100 | > 100 |  | > 100 | > 100 | > 100 |  |  |  |  |  |  |  |  |  | 
